According to patent US5948750A, “Conjugates useful in the treatment of prostate cancer” (priority 1997, dated 1999):
Like-named read-outs stand apart in the source and are kept apart here. Square brackets hold non-standard residues; d marks the D form. Peptide text beside a SMILES is read from it. * marks the point of attachment. Doxorubicin(3'-N) = COc1cccc2c1C(=O)c1c(O)c3c(c(O)c1C2=O)C[C@@](O)(C(=O)CO)C[C@@H]3O[C@H]1C[C@H](N*)[C@H](O)[C@H](C)O1; Decanoyl(3,6,9-trioxa) = COCCOCCOCC(=O)*; Hyp = O=C(O)[C@@H]1C[C@@H](O)CN1; Chg = N[C@H](C(=O)O)C1CCCCC1; ΔPro = O=C(O)[C@@H]1C=CCN1

What was measured:
[1] = molecular target: T1, free PSA (Homo sapiens, UniProt P07288); format: biochemical; conditions: for Time to 50% Substrate Cleavage by PSA: free psa; for Substrate cleavage by PSA at 3 hours: oligopeptide to PSA molar ratio 100 to 1
T1 construct: required for 50% cleavage of the noted oligopeptides with enzymatically active free PSA
Method: The oligopeptides prepared as described in Example 1 were individually dissolved in PSA digestion buffer (12 mM tris(hydroxymethyl)-aminomethane pH 8.0, 25 mM NaCl, 0.5 mM CaCl2) and the solution added to PSA at a molar ration of 100 to 1. Alternatively, the PSA digestion buffer utilized is 50 mM tris(hydroxymethyl)-aminomethane pH 7.4, 140 mM NaCl. The reaction is quenched after various reaction times by the addition of trifluoroacetic acid (TFA) to a final 1% (volume/volume). Alternatively the reaction is quenched with 10 mM ZnCl2. The quenched reaction was analyzed by HPLC on a reversed-phase C18 column using an aqueous 0.1% TFA/acetonitrile gradient. […] Oligopeptides containing free amine moieties (ie. comprising hArg, Orn, Lys and or 3PAL) were tested as TFA salts. All other oligopeptides were tested as neutral compounds.

[2] = molecular target: T1, free PSA; experiment: Recognition of oligopeptide-doxorubicin conjugates by free PSA (HPLC cleavage assay); format: biochemical; conditions: conjugate to PSA molar ratio 100 to 1; enzymatically active free PSA
Method: The conjugates prepared as described in Examples 3-5 were individually dissolved in PSA digestion buffer (12 mM tris(hydroxymethyl)-aminomethane pH 8.0, 25 mM NaCl, 0.5 mM CaCl2) and the solution added to PSA at a molar ration of 100 to 1. Alternatively, the PSA digestion buffer utilized is 50 mM tris(hydroxymethyl)-aminomethane pH 7.4, 140 mM NaCl. The reaction is quenched after various reaction times by the addition of trifluoroacetic acid (TFA) to a final 1% (volume/volume). Alternatively the reaction is quenched with 10 mM ZnCl2. The quenched reaction was analyzed by HPLC on a reversed-phase C18 column using an aqueous 0.1% TFA/acetonitrile gradient. […] If no salt is indicated for the conjugate, the free conjugate was tested. The oligopeptide-cytotoxic agent conjugates described in Examples 4 and 5 were assessed for the amount of time (in minutes) required for 50% cleavage of the oligopeptide with enzymatically active free PSA and 50% cleavage occurred in less than 2 hours for those conjugates.

[3] = system: DuPRO cells; experiment: In vitro cytotoxicity of peptidyl derivatives of doxorubicin, Alamar Blue assay, DuPRO; format: cell-based; conditions: 72 HRS, read-out: DUPRO Cell Kill in 72 HRS EC 50
Method: (§1) The cytotoxicities of the cleaveable oligopeptide-doxorubicin conjugates, prepared as described in Examples 3 and 4, against a line of cells which is known to be killed by unmodified doxorubicin were assessed with an Alamar Blue assay. Specifically, cell cultures of LNCap prostate tumor cells (which express enzymatically active PSA) or DuPRO cells in 96 well plates was diluted with medium (Dulbecco's […]-α[MEM-α]) containing various concentrations of a given conjugate (final plate well volume of 200 μl). The cells were incubated for 3 days at 37° C., 20 μl of Alamar Blue is added to the assay well. The cells were further incubated and the assay plates were read on a EL-310 ELISA reader at the dual wavelengths of 570 and 600 nm at 4 and 7 hours after addition of Alamar Blue. Relative percentage viability at the various concentration of conjugate tested was then calculated versus control (no conjugate) cultures. If no salt is indicated, the free conjugate was tested.

[4] = system: LNCap prostate tumor cells (which express enzymatically active PSA); experiment: In vitro cytotoxicity of peptidyl derivatives of doxorubicin, Alamar Blue assay, LNCaP; format: cell-based; conditions: 72 HRS (3 days at 37° C.), read-out: LNCaP Cell Kill in 72 HRS EC 50
Method: as §1

T1 sequence (P07288 25-261): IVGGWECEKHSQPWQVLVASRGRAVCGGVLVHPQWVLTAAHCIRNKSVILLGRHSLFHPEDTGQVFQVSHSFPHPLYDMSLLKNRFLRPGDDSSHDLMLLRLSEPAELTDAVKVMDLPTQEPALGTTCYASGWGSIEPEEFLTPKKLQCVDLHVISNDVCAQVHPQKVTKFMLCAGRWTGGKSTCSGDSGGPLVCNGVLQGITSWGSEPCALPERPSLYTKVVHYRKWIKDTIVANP

Time to 50% Substrate Cleavage by PSA [1]	Substrate cleavage by PSA at 3 hours [1]	SMILES	Time to 50% Substrate Cleavage by PSA [2]	further results
120 min	–	CC(=O)N1CCC[C@H]1C(=O)N[C@@H](CO)C(=O)N[C@@H](CO)C(=O)N[C@H](C(=O)N[C@@H](CCC(N)=O)C(=O)N[C@@H](CO)C(=O)N[C@H](C(=O)O)C(C)C)C1CCCCC1 [Ac-PSSChgQ-SV-acid]	–	–
–	–	COc1cccc2c1C(=O)c1c(O)c3c(c(O)c1C2=O)C[C@@](O)(C(=O)CO)C[C@@H]3O[C@H]1C[C@H](NC(=O)[C@H](CC(C)(C)C)NC(=O)[C@H](CO)NC(=O)[C@H](CCC(N)=O)NC(=O)[C@@H](NC(=O)[C@H](CO)NC(=O)[C@H](C)NC(=O)[C@@H]2C[C@@H](O)CN2C(C)=O)C2CCCCC2)[C@H](O)[C@H](C)O1	25 min	–
–	28%	CC(=O)N1CC=C[C@H]1C(=O)N[C@@H](C)C(=O)N[C@@H](CO)C(=O)N[C@H](C(=O)N[C@@H](CCC(N)=O)C(=O)N[C@@H](CO)C(=O)N[C@@H](CC(C)C)C(=O)O)C1CCCCC1 [Ac-(Dehydro-Pro)-ASChgQ-SL-acid] (Ac-[ΔPro]AS[Chg]QSL-OH)	–	–
–	–	COc1cccc2c1C(=O)c1c(O)c3c(c(O)c1C2=O)C[C@@](O)(C(=O)CO)C[C@@H]3O[C@H]1C[C@H](NC(=O)[C@H](CC(C)C)NC(=O)[C@H](CO)NC(=O)[C@H](CCC(N)=O)NC(=O)[C@@H](NC(=O)[C@H](CO)NC(=O)[C@H](C)NC(=O)[C@@H]2C[C@@H](O)CN2C(C)=O)C2CCCCC2)[C@H](O)[C@H](C)O1 (relative stereo) [Ac-(4-trans-L-Hyp)ASChgQ-SL-DOX (3'), [N-Ac-(4-trans-L-Hyp)]-Ala-Ser-Chg-Gln-Ser-Leu-Dox]	20 min	EC50 [3]: 90 µM; EC50 [4]: 4.5 µM
–	0%	CC(=O)N1C[C@H](O)C[C@H]1C(=O)N[C@H](C(=O)N[C@@H](CCC(N)=O)C(=O)N[C@@H](CO)C(=O)N[C@@H](CO)C(=O)N[C@@H](CO)C(=O)N[C@@H](CC(C)C)C(=O)O)C1CCCCC1 [Ac-(4-trans-L-Hyp)ChgQ-SSSL-acid] (Ac-[Hyp][Chg]QSSSL-OH)	–	–
–	16%	CC(=O)N1C[C@H](O)C[C@H]1C(=O)N[C@@H](C)C(=O)N[C@@H](CO)C(=O)N[C@H](C(=O)N[C@@H](CCC(N)=O)C(=O)N[C@@H](CO)C(=O)N1Cc2ccccc2C[C@H]1C(=O)O)C1CCCCC1 [Ac-(4-trans-L-Hyp)ASChgQ-S(TIC)-acid]	–	–
150 min	–	CC(=O)N1CCC[C@H]1C(=O)N[C@@H](C)C(=O)N[C@@H](CO)C(=O)N[C@H](C(=O)N[C@@H](CCC(N)=O)C(=O)N[C@@H](CO)C(=O)N[C@@H](CC(C)C)C(=O)O)C1CCCCC1 [Ac-PASChgQ-SL-acid] (Ac-PAS[Chg]QSL-OH)	–	–
–	44%	COCCOCCOCC(=O)N1C[C@H](O)C[C@H]1C(=O)N[C@@H](C)C(=O)N[C@@H](CO)C(=O)N[C@H](C(=O)N[C@@H](CCC(N)=O)C(=O)N[C@@H](CO)C(=O)N[C@@H](CC(C)C)C(=O)O)C1CCCCC1 [PEG(2)-(4-trans-L-Hyp)-ASChgQ-SL-acid] ({Decanoyl(3,6,9-trioxa)}-[Hyp]AS[Chg]QSL-OH)	–	–
75 min	–	CC(=O)N1C[C@H](O)C[C@H]1C(=O)N[C@@H](C)C(=O)N[C@@H](CO)C(=O)N[C@H](C(=O)N[C@@H](CCC(N)=O)C(=O)N[C@@H](CO)C(=O)N[C@@H](CC(C)C)C(=O)O)C1CCCCC1 [Ac-(4-trans-L-Hyp)ASChgQ-SL-acid, [N-Ac-(4-trans-L-Hyp)]-Ala-Ser-Chg-Gln-Ser-Leu-OH] (Ac-[Hyp]AS[Chg]QSL-OH)	–	–
–	–	COCCOCCOCC(=O)N1C[C@H](O)C[C@H]1C(=O)N[C@@H](C)C(=O)N[C@@H](CO)C(=O)N[C@H](C(=O)N[C@@H](CCC(N)=O)C(=O)N[C@@H](CO)C(=O)N[C@@H](CC(C)C)C(=O)N[C@H]1C[C@H](O[C@H]2C[C@](O)(C(=O)CO)Cc3c(O)c4c(c(O)c32)C(=O)c2c(OC)cccc2C4=O)O[C@@H](C)[C@H]1O)C1CCCCC1 [PEG(2)-(4-trans-L-Hyp)ASChgQ-SL-DOX (3')] ({Decanoyl(3,6,9-trioxa)}-[Hyp]AS[Chg]QSL-{Doxorubicin(3'-N)})	20 min	–
